Source: patent publication US12029217B2, “Safened compositions comprising pyridine carboxylate herbicides and isoxadifen” (Corteva Agriscience LLC, priority 2018, dated 2024)

Assays:
Assay type in all cases: in vivo
[1] = tested on: Ambrosia artemisiifolia (common ragweed); experiment: Greenhouse postemergence visual injury, common ragweed (AMBEL); details: Example 7
Text: (§1) Seeds of the desired test plant species were planted in a 90:10% v/v (volume/volume) mixture of PRO-MIX® BX (Premier Tech Horticulture, Quakertown, PA, USA) and PROFILE® GREENS GRADE™ (Profile Products LLC, Buffalo Grove, IL, USA) planting mixture, which typically has a pH of 5.2 to 6.2 and an organic matter content of at least 50 percent, in plastic pots with a surface area of 103.2 square centimeters (cm^2). When required to ensure good germination and healthy plants, a fungicide treatment and/or other chemical or physical treatment was applied. The plants were grown for 7-36 days (d) in a greenhouse with an approximate 14-hour (h) photo-period which was maintained at about 23° C. during the day and 22° C. during the night. Nutrients and water were added on a regular basis and supplemental lighting was provided with overhead metal halide 1000-Watt lamps as necessary. The plants were employed for testing when they reached the second or third true leaf stage.
(§2) Emulsifiable concentrates of each of each pyridine carboxylate herbicide (Compound A or Compound B) were prepared at 100 grams acid equivalent per liter (g ae/L). An aliquot of each emulsifiable concentrate was placed in a 25 mL glass vial and diluted with an aqueous mixture of 1.25% (v/v) ACTIROB® B esterified rapeseed oil (Bayer Crop Science, Research Triangle Park, NC, USA) or MSO® Concentrate with LECI-TECH® methylated soybean oil (Loveland Products, Loveland, CO, USA) to obtain concentrated stock solutions at the highest application rate for each herbicide, based upon a 12 milliliter (mL) application volume at a rate of 187 liters per hectare (L/ha). The concentrated stock solutions were further diluted with an aqueous mixture of 1.25% v/v ACTIROB® B or MSO® Concentrate with LECI-TECH® to obtain stock solutions at reduced application rates for each herbicide. Spray solutions of the herbicide combinations (Compound A or Compound B plus safener) were prepared by adding weighed amounts or aliquots of the safener to the stock solutions of Compound A or Compound B to form 12-mL spray solutions in two-way combinations.
(§3) The spray solutions were applied to the plant material with an overhead Mandel track sprayer equipped with 8002E nozzles calibrated to deliver 187 L/ha over an application area of 0.503 square meters (m^2) at a spray height of 18 inches (43 centimeters (cm)) above the average plant canopy. […]
(§4) The treated plants and control plants were placed in a greenhouse as described above and watered by sub-irrigation to prevent wash-off of the test compounds. After 20-22 d, the condition of the test plants as compared with that of the control plants was determined visually and scored on a scale of 0 to 100 percent where 0 corresponds to no injury and 100 corresponds to complete kill.

[2] = tested on: Chenopodium album L. (common lambsquarters); experiment: Greenhouse postemergence visual injury, common lambsquarters (CHEAL); details: Example 6
Text: as §1, §2, §3, §4

[3] = tested on: Amaranthus retroflexus (pigweed); experiment: Greenhouse postemergence visual injury, pigweed (AMARE)
Text: as §1, §2
(§5) The spray solutions were applied to the plant material with an overhead Mandel track sprayer equipped with 8002E nozzles calibrated to deliver 187 L/ha over an application area of 0.503 square meters (m^2) at a spray height of 18 inches (43 centimeters (cm)) above the average plant canopy. Control plants were sprayed in the same manner with the solvent blank. All herbicide (component a) application rates are given as “g ae/ha” and all safener (component b) application rates are given as “g ai/ha.”
as §4

[4] = tested on: Echinochloa crus-galli (barnyardgrass); experiment: Greenhouse postemergence visual injury, barnyardgrass (ECHCG)
Text: as §1, §2, §5, §4

Zea mays (maize) = experiment: Greenhouse postemergence visual injury, maize (ZEAMX)
Text: as §1, §2, §5, §4

[5] = tested on: Hordeum vulgare (spring barley); experiment: Greenhouse postemergence visual injury, spring barley (HORVS)
Text: as §1, §2, §5, §4

[6] = tested on: Lolium multiflorum (Italian ryegrass); experiment: Greenhouse postemergence visual injury, Italian ryegrass (LOLMU)
Text: as §1, §2, §5, §4

Avena fatua (wild oat) = experiment: Greenhouse postemergence visual injury, wild oat (AVEFA); details: Example 6
Text: as §1, §2, §3, §4

[7] = tested on: Triticum aestivum (spring wheat); experiment: Greenhouse postemergence visual injury, spring wheat (TRZAS)
Text: as §1, §2, §5, §4

[8] = tested on: Amaranthus tamariscinus (common water hemp); experiment: Greenhouse postemergence visual injury, common water hemp (AMATA); details: Example 7
Text: as §1, §2, §3, §4

[9] = tested on: Matricaria chamomilla (wild chamomile); experiment: Greenhouse postemergence visual injury, wild chamomile (MATCH); details: Example 1
Text: as §1, §2, §3, §4

[10] = tested on: Brassica napus (winter rape); experiment: Greenhouse postemergence visual injury, winter rape (BRSNW)
Text: as §1, §2, §5, §4

[11] = tested on: Helianthus annuus (common sunflower); experiment: Greenhouse postemergence visual injury, common sunflower (HELAN)
Text: as §1, §2, §5, §4

[12] = tested on: Oryza sativa (common rice); experiment: Greenhouse postemergence visual injury, rice (ORYSA); details: Example 6
Text: as §1, §2, §3, §4

[13] = tested on: Sorghum vulgare (sorghum); experiment: Greenhouse postemergence visual injury, sorghum (SORVU); details: Example 5
Text: as §1, §2, §5, §4

[14] = isoxadifen-ethyl 20 g/ha, Example 4
[15] = isoxadifen-ethyl 20 g/ha, Example 5
[16] = isoxadifen-ethyl 20 g/ha, Example 6
[17] = isoxadifen-ethyl 40 g/ha, Example 4
[18] = isoxadifen-ethyl 40 g/ha, Example 5
[19] = isoxadifen-ethyl 40 g/ha, Example 6
[20] = isoxadifen-ethyl 80 g/ha, Example 4
[21] = isoxadifen-ethyl 80 g/ha, Example 5
[22] = isoxadifen-ethyl 80 g/ha, Example 6
[23] = isoxadifen-ethyl 120 g/ha, Example 4
[24] = isoxadifen-ethyl 120 g/ha, Example 5
[25] = isoxadifen-ethyl 10 g/ha, Example 7
[26] = isoxadifen-ethyl 20 g/ha, Example 7
[27] = isoxadifen-ethyl 10 g/ha, Example 1
[28] = isoxadifen-ethyl 20 g/ha, Example 1
[29] = isoxadifen-ethyl 20 g/ha, Example 2
[30] = isoxadifen-ethyl 40 g/ha, Example 1
[31] = isoxadifen-ethyl 40 g/ha, Example 2
[32] = isoxadifen-ethyl 80 g/ha, Example 2
[33] = isoxadifen-ethyl 120 g/ha, Example 2

N#CCOC(=O)c1nc(-c2ccc3cc[nH]c3c2F)c(F)c(N)c1Cl [Compound A, cyanomethyl 4-amino-3-chloro-5-fluoro-6-(7-fluoro-1H-indol-6-yl)pyridine-2-carboxylate]
% visual injury, Ob ([1]; Compound A 10 g/ha): 100% | % visual injury, Ob ([1]; Compound A 20 g/ha): 100% | % visual injury, Ob ([2]; Compound A 20 g/ha): 88% | % visual injury, Ob ([3]; Compound A 20 g/ha, Example 6): 93% | % visual injury, Ob ([3]; Compound A 40 g/ha, Example 4): 100% | % visual injury, Ob ([3]; Compound A 40 g/ha, Example 5): 100% | % visual injury, Ob ([4]; Compound A 10 g/ha, Example 7): 100% | % visual injury, Ob ([4]; Compound A 20 g/ha, Example 6): 85% | % visual injury, Ob ([4]; Compound A 20 g/ha, Example 7): 100% | % visual injury, Ob (Zea mays (maize); Compound A 10 g/ha, Example 7): 48% | % visual injury, Ob (Zea mays (maize); Compound A 20 g/ha, Example 6): 13% | % visual injury, Ob (Zea mays (maize); Compound A 20 g/ha, Example 7): 60% | % visual injury, Ob (Zea mays (maize); Compound A 40 g/ha, Example 5): 55% | % visual injury, Ob ([5]; Compound A 20 g/ha, Example 1): 0% | % visual injury, Ob ([5]; Compound A 40 g/ha, Example 2): 17% | % visual injury, Ob ([6]; Compound A 10 g/ha, Example 7): 18% | % visual injury, Ob ([6]; Compound A 20 g/ha, Example 6): 5% | % visual injury, Ob ([6]; Compound A 20 g/ha, Example 7): 60% | % visual injury, Ob (Avena fatua (wild oat); Compound A 20 g/ha): 0% | % visual injury, Ob ([7]; Compound A 20 g/ha, Example 1): 25% | % visual injury, Ob ([7]; Compound A 40 g/ha, Example 2): 23% | % visual injury, Ob ([7]; Compound A 40 g/ha, Example 4): 30% | % visual injury, Ob ([8]; Compound A 10 g/ha): 98% | % visual injury, Ob ([8]; Compound A 20 g/ha): 100% | % visual injury, Ob ([9]; Compound A 20 g/ha): 50% | % visual injury, Ob ([10]; Compound A 20 g/ha, Example 1): 95% | % visual injury, Ob ([10]; Compound A 20 g/ha, Example 6): 85% | % visual injury, Ob ([11]; Compound A 20 g/ha, Example 6): 95% | % visual injury, Ob ([11]; Compound A 40 g/ha, Example 4): 100% | % visual injury, Ob ([11]; Compound A 40 g/ha, Example 5): 100% | % visual injury, Ob ([12]; Compound A 20 g/ha): 10% | % visual injury, Ob ([13]; Compound A 40 g/ha): 50%

CCOC(=O)C1=NOC(c2ccccc2)(c2ccccc2)C1 [Isoxadifen-ethyl, isoxadifen-ethyl]
% visual injury, Ob ([1]; isoxadifen-ethyl 10 g/ha): 0% | % visual injury, Ob ([1]; isoxadifen-ethyl 20 g/ha): 0% | % visual injury, Ob ([2]; isoxadifen-ethyl 20 g/ha): 0% | % visual injury, Ob ([2]; isoxadifen-ethyl 40 g/ha): 0% | % visual injury, Ob ([2]; isoxadifen-ethyl 80 g/ha): 0% | % visual injury, Ob [3, 14]: 0% | % visual injury, Ob [3, 15]: 0% | % visual injury, Ob [3, 16]: 0% | % visual injury, Ob [3, 17]: 0% | % visual injury, Ob [3, 18]: 0% | % visual injury, Ob [3, 19]: 0% | % visual injury, Ob [3, 20]: 0% | % visual injury, Ob [3, 21]: 0% | % visual injury, Ob [3, 22]: 0% | % visual injury, Ob [3, 23]: 0% | % visual injury, Ob [3, 24]: 0% | % visual injury, Ob [4, 25]: 0% | % visual injury, Ob [4, 16]: 0% | % visual injury, Ob [4, 26]: 0% | % visual injury, Ob [4, 19]: 0% | % visual injury, Ob [4, 22]: 0% | % visual injury, Ob (Zea mays (maize); [25]): 0% | % visual injury, Ob (Zea mays (maize); [15]): 0% | % visual injury, Ob (Zea mays (maize); [16]): 0% | % visual injury, Ob (Zea mays (maize); [26]): 0% | % visual injury, Ob (Zea mays (maize); [18]): 0% | % visual injury, Ob (Zea mays (maize); [19]): 0% | % visual injury, Ob (Zea mays (maize); [21]): 0% | % visual injury, Ob (Zea mays (maize); [22]): 0% | % visual injury, Ob (Zea mays (maize); [24]): 0% | % visual injury, Ob [5, 27]: 0% | % visual injury, Ob [5, 28]: 0% | % visual injury, Ob [5, 29]: 0% | % visual injury, Ob [5, 30]: 0% | % visual injury, Ob [5, 31]: 0% | % visual injury, Ob [5, 32]: 0% | % visual injury, Ob [5, 33]: 0% | % visual injury, Ob [6, 25]: 0% | % visual injury, Ob [6, 16]: 0% | % visual injury, Ob [6, 26]: 0% | % visual injury, Ob [6, 19]: 0% | % visual injury, Ob [6, 22]: 0% | % visual injury, Ob (Avena fatua (wild oat); isoxadifen-ethyl 20 g/ha): 0% | % visual injury, Ob (Avena fatua (wild oat); isoxadifen-ethyl 40 g/ha): 0% | % visual injury, Ob (Avena fatua (wild oat); isoxadifen-ethyl 80 g/ha): 0% | % visual injury, Ob [7, 27]: 0% | % visual injury, Ob [7, 28]: 0% | % visual injury, Ob [7, 29]: 0% | % visual injury, Ob [7, 14]: 0% | % visual injury, Ob [7, 30]: 0% | % visual injury, Ob [7, 31]: 0% | % visual injury, Ob [7, 17]: 0% | % visual injury, Ob [7, 32]: 0% | % visual injury, Ob [7, 20]: 0% | % visual injury, Ob [7, 33]: 0% | % visual injury, Ob [7, 23]: 0% | % visual injury, Ob ([8]; isoxadifen-ethyl 10 g/ha): 0% | % visual injury, Ob ([8]; isoxadifen-ethyl 20 g/ha): 0% | % visual injury, Ob ([9]; isoxadifen-ethyl 10 g/ha): 0% | % visual injury, Ob ([9]; isoxadifen-ethyl 20 g/ha): 0% | % visual injury, Ob ([9]; isoxadifen-ethyl 40 g/ha): 0% | % visual injury, Ob [10, 27]: 0% | % visual injury, Ob [10, 28]: 0% | % visual injury, Ob [10, 16]: 0% | % visual injury, Ob [10, 30]: 0% | % visual injury, Ob [10, 19]: 0% | % visual injury, Ob [10, 22]: 0% | % visual injury, Ob [11, 14]: 0% | % visual injury, Ob [11, 15]: 0% | % visual injury, Ob [11, 16]: 0% | % visual injury, Ob [11, 17]: 0% | % visual injury, Ob [11, 18]: 0% | % visual injury, Ob [11, 19]: 0% | % visual injury, Ob [11, 20]: 0% | % visual injury, Ob [11, 21]: 0% | % visual injury, Ob [11, 22]: 0% | % visual injury, Ob [11, 23]: 0% | % visual injury, Ob [11, 24]: 0% | % visual injury, Ob ([12]; isoxadifen-ethyl 20 g/ha): 0% | % visual injury, Ob ([12]; isoxadifen-ethyl 40 g/ha): 0% | % visual injury, Ob ([12]; isoxadifen-ethyl 80 g/ha): 0% | % visual injury, Ob ([13]; isoxadifen-ethyl 20 g/ha): 0% | % visual injury, Ob ([13]; isoxadifen-ethyl 40 g/ha): 0% | % visual injury, Ob ([13]; isoxadifen-ethyl 80 g/ha): 0% | % visual injury, Ob ([13]; isoxadifen-ethyl 120 g/ha): 0%
